Laboratory results reported in patent US9783534B2 (priority 2013, dated 2017).
Where two headings read alike, the source gives them in different places.

Legend:
Phytophthora infestans = type: in vivo; details: tomato, protective, 50 g a.i./liter SC formulation, evaluation 3 days after inoculation
Plasmopara viticola = assay: Plasmopara test (vine)/protective; type: in vivo; details: protective, 50 g a.i./liter SC formulation, evaluation 6 days after inoculation
Excerpt: To produce a suitable active ingredient preparation, formulations are suspended with water and diluted to the desired concentration. In the present case, both the known amorphous modification of the substance 2-{3-[2-(1-{[3,5-bis(difluoromethyl)-1H-pyrazol-1-yl]acetyl}piperidin-4-yl)-1,3-thiazol-4-yl]-4,5-dihydro-1,2-oxazol-5-yl}-3-chlorophenylmethanesulphonate (form A), as well as the inventive crystalline form of the substance 2-{3-[2-(1-{[3,5-bis(difluoromethyl)-1H-pyrazol-1-yl]acetyl}piperidin-4-yl)-1,3-thiazol-4-yl]-4,5-dihydro-1,2-oxazol-5-yl}-3-chlorophenylmethanesulphonate (form B) are used as 50 g a.i./liter of SC formulation.
To test for protective effectiveness, young plants are sprayed with the active ingredient preparation at the stated application rate. After initial drying of the spray coating, the plants are inoculated with an aqueous spore suspension of Plasmopara viticola and then remain in an incubation cabin for 1 day at approx. 20° C. and 100% relative atmospheric humidity. The plants are then placed in a greenhouse at approx. 21° C. and approx. 90% atmospheric humidity for 4 days. The plants are then moistened and placed in an incubation cabin for 1 day.
Evaluation is carried out 6 days after the inoculation. 0% here means an efficacy which corresponds to that of the control, whereas an efficacy of 100% means that no infection is observed.

[1] = Stability of the solid form on storage; type: physicochemical; details: prolonged storage
[2] = application rate 0.05 ppm active ingredient
[3] = application rate 0.1 ppm active ingredient
[4] = application rate 0.2 ppm active ingredient

What does the source list for `CS(=O)(=O)Oc1cccc(Cl)c1C1CC(c2csc(C3CCN(C(=O)Cn4nc(C(F)F)cc4C(F)F)CC3)n2)=NO1` (single isomer, unassigned) [Form B, 2-{3-[2-(1-{[3,5-bis(difluoromethyl)-1H-pyrazol-1-yl]acetyl}piperidin-4-yl)-1,3-thiazol-4-yl]-4,5-dihydro-1,2-oxazol-5-yl}-3-chlorophenylmethanesulphonate]?
Efficacy in % (Phytophthora infestans; [2]): 40%; Efficacy in % (Phytophthora infestans; [3]): 60%; Efficacy in % (Phytophthora infestans; [4]): 76%; Efficacy in % (Plasmopara viticola; [2]): 0%; Efficacy in % (Plasmopara viticola; [3]): 35%; Efficacy in % (Plasmopara viticola; [4]): 75%; thermodynamic stability / conversion into another form [1]: not converted into another form even on prolonged storage

For `CS(=O)(=O)Oc1cccc(Cl)c1C1CC(c2csc(C3CCN(C(=O)Cn4nc(C(F)F)cc4C(F)F)CC3)n2)=NO1` (single isomer, unassigned) [Form A, 2-{3-[2-(1-{[3,5-bis(difluoromethyl)-1H-pyrazol-1-yl]acetyl}piperidin-4-yl)-1,3-thiazol-4-yl]-4,5-dihydro-1,2-oxazol-5-yl}-3-chlorophenylmethanesulphonate, reference compound], which Efficacy in % (Phytophthora infestans; [2]) is on record?
Its Efficacy in % is 0%.

And the Efficacy in % (Phytophthora infestans; [3])?
Its Efficacy in % is 15%.

What about the Efficacy in % (Phytophthora infestans; [4]) of the same compound?
The Efficacy in % was 40%.

What about the Efficacy in % (Plasmopara viticola; [2]) of the same compound?
Its Efficacy in % is 0%.

And the Efficacy in % (Plasmopara viticola; [3])?
The Efficacy in % was 6%.

And the Efficacy in % (Plasmopara viticola; [4])?
Its Efficacy in % is 35%.
